{"source": "patent US20060111442A1", "about": "“Use of methyl pyruvate to increase cellular energy production downstream of glycolysis for the PARP-1 ablation of HIV without necrotic cell death caused by continuous, chronic PARP-1 activation through the concomitant depletion of ATP and NAD” (priority 2004, published 2006)", "origin": "cited, not measured here", "key": {"[1]": {"details": "1 mmol.kg-1.d-1, 7 d; P<0.01"}, "PDK4 [2]": {"tested_on": "PDK4", "details": "feeding"}, "PDK4 [3]": {"tested_on": "PDK4", "details": "control and high-fat-fed rats"}, "[4]": {"tested_on": "hepatic stellate cells (HSC)", "details": "10 microm 15dPGJ(2); 0.1 approximately 10 microm BRL49653; WY14643 >100 microm, not <10 microm"}, "Na(+)-K(+)-ATPase": {"tested_on": "Na(+)-K(+)-ATPase", "details": "10 microM"}, "[5]": {"tested_on": "guinea-pig cerebral cortical synaptosomes"}, "mGPDH-deficient islets": {"tested_on": "mGPDH-deficient islets", "details": "both NADH shuttles halted"}}}
{"smiles": "CCO[C@@H](Cc1ccc(OCCc2ccc(OS(C)(=O)=O)cc2)cc1)C(=O)O", "note": "[tesaglitazar]", "values": [{"measurement": "insulin sensitivity (glucose infusion rate during hyperinsulinemic-euglycemic clamp)", "setting": "[1]", "result": "improved the insulin sensitivity"}]}
{"smiles": "Cc1cccc(Nc2cc(Cl)nc(SCC(=O)O)n2)c1C", "note": "[WY14643]", "values": [{"measurement": "pyruvate dehydrogenase kinase activity, PDK4 protein, PDK4 mRNA in gastrocnemius muscle", "setting": "PDK4 [2]", "result": "induced large increases"}, {"measurement": "hepatic PDK4 protein", "setting": "PDK4 [3]", "result": "significantly increased PDK4 protein"}, {"measurement": "HSC DNA and collagen synthesis", "setting": "[4]", "result": "inhibited"}]}
{"smiles": "C[C@@H]1O[C@@H](O[C@H]2C[C@@H](O)[C@]3(CO)[C@H]4[C@H](O)C[C@]5(C)[C@@H](C6=CC(=O)OC6)CC[C@]5(O)[C@@H]4CC[C@]3(O)C2)[C@H](O)[C@H](O)[C@H]1O", "note": "[ouabain]", "values": [{"measurement": "glycolysis and lactate production", "setting": "Na(+)-K(+)-ATPase", "result": "decreased glycolysis and lactate production"}]}
{"smiles": "NOCC(=O)O", "note": "[amino-oxyacetic acid]", "values": [{"measurement": "negative shift in the cytosolic NAD+/NADH redox potential", "setting": "[5]", "result": 26, "unit": "mV"}, {"measurement": "glucose-induced insulin secretion", "setting": "mGPDH-deficient islets", "result": "almost completely abrogated"}]}
